Reference: ChEMBL document CHEMBL1122842, “Beta-adrenoceptor activity of the stereoisomers of the bufuralol alcohol and ketone metabolites” (J Med Chem, 1985)

Each compound was assayed against Beta-1 adrenergic receptor (Rattus norvegicus) (UniProt P18090). Conditions: Heart.
Beta-1 adrenergic receptor (Rattus norvegicus), sequence (P18090 whole entry, looked up): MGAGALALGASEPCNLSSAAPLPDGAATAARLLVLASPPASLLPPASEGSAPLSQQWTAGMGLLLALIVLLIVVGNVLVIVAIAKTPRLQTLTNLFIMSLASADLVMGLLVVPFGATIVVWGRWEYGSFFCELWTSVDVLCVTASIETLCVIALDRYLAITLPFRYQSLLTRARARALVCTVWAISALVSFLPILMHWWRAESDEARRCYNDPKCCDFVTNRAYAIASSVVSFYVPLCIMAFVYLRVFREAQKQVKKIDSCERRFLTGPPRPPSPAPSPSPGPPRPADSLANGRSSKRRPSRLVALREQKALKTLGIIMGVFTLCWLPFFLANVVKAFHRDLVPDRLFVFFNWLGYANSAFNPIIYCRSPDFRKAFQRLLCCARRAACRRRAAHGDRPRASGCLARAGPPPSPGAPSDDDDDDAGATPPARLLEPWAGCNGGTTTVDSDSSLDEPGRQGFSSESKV
Description: Beta-1 adrenergic receptor agonist activity as increased heart rate by 30 beats/min in rats

ED30 [mg/kg]	SMILES
0.0006	CC(=O)c1cccc2cc([C@@H](O)CNC(C)(C)C)oc12
> 1	CC(O)c1cccc2cc([C@H](O)CNC(C)(C)C)oc12 (stereo in doubt; form 1)
0.032	CC(=O)c1cccc2cc([C@H](O)CNC(C)(C)C)oc12
0.0007	CC(O)c1cccc2cc([C@@H](O)CNC(C)(C)C)oc12 (stereo in doubt; form 2)
> 1	CCc1cccc2cc([C@H](O)CNC(C)(C)C)oc12
0.019	CC(O)c1cccc2cc([C@@H](O)CNC(C)(C)C)oc12 (stereo in doubt; form 1)
0.305	CC(O)c1cccc2cc([C@H](O)CNC(C)(C)C)oc12 (stereo in doubt; form 2)
0.053	CCc1cccc2cc([C@@H](O)CNC(C)(C)C)oc12
